Source: patent US8303962B2, “Antibacterial and antifungal peptides” (C3 Jian, Inc., priority 2009, dated 2012)
Values after ≈ are worked out from the molar mass of the structure shown. Where two headings read alike, the source gives them in different places. One block for each compound: values may come before it. Peptide text beside a SMILES is read from it.

Columns and labels:
[1] = system: B. subtilis; format: cell-based, Bacillus subtilis
Procedure: (§1) In certain embodiments the MIC assays are performed as described herein in the Examples. For each organism, the media and growth conditions utilized is detailed in Table 8.
(§2) In certain embodiments the MIC assays are performed as follows: For each organism, the media and growth conditions utilized is detailed in Table 8.

[2] = system: MRSA; format: cell-based, Methicillin-resistant Staphylococcus aureus
Procedure: as §1, §2

[3] = system: A. baumannii; format: cell-based, Acinetobacter baumannii; details: LB, 30° C., anaerobic
Procedure: as §1, §2

[4] = system: S. pneumoniae; format: cell-based, Streptococcus pneumoniae; details: TSB supplemented with 5% yeast extract, 37° C., 10% CO2
Procedure: as §1, §2

[5] = system: T. rubrum; format: cell-based, Trichophyton rubrum; details: T. rubrum; Potato Dextrose Agar, 25° C., aerobic
Procedure: as §1, §2

[6] = system: A. niger; format: cell-based, Aspergillus niger
Procedure: as §1, §2

Compound: CC[C@H](C)[C@H](NC(=O)CNC(=O)[C@@H](N)CCSC)C(=O)N[C@H](C(=O)N[C@@H](C)C(=O)NCC(=O)N[C@H](C(=O)N[C@H](C(=O)N[C@@H](CCCCN)C(=O)N[C@@H](Cc1ccccc1)C(=O)N[C@H](C(=O)N[C@@H](CCCCN)C(=O)NCC(=O)N[C@@H](CC(C)C)C(=O)N[C@H](C(=O)N[C@@H](CCC(=O)O)C(=O)N[C@@H](CCCCN)C(=O)N[C@@H](Cc1ccccc1)C(=O)N[C@H](C(=O)NCC(=O)N[C@@H](CCCCN)C(=O)O)[C@@H](C)O)[C@@H](C)CC)[C@@H](C)CC)[C@@H](C)CC)[C@@H](C)CC)[C@@H](C)CC [PF-006]
- MIC ([1]; B. subtilis, BHI, 30° C., aerobic): 25 µM (≈ 56.9 µg/mL)
- MIC ([2]; MRSA, BHI supplemented with 2% glucose, 37° C., aerobic): 50 µM (≈ 114 µg/mL)
- MIC [3]: 50 µM (≈ 114 µg/mL)

Compound: CC(C)C[C@H](NC(=O)CNC(=O)[C@@H](N)CC(C)C)C(=O)N[C@H](C(=O)N[C@@H](C)C(=O)NCC(=O)N[C@H](C(=O)N[C@@H](C)C(=O)N[C@@H](Cc1ccc(O)cc1)C(=O)N[C@@H](C)C(=O)N[C@@H](C)C(=O)N[C@@H](CCC(N)=O)C(=O)N1CCC[C@H]1C(=O)N[C@H](C(=O)N[C@@H](CC(N)=O)C(=O)N[C@@H](CCC(N)=O)C(=O)N1CCC[C@H]1C(=O)N[C@H](C(=O)N[C@@H](CC(N)=O)C(=O)N[C@@H](CCC(N)=O)C(=O)N1CCC[C@H]1C(=O)N[C@H](C(=O)N[C@@H](CC(N)=O)C(=O)N[C@@H](CCC(N)=O)C(=O)N1CCC[C@H]1C(=O)N[C@H](C(=O)N[C@@H](CC(N)=O)C(=O)N[C@@H](CCC(N)=O)C(=O)N1CCC[C@H]1C(=O)N[C@H](C(=O)N[C@@H](CC(N)=O)C(=O)N[C@@H](CCC(N)=O)C(=O)N1CCC[C@H]1C(=O)N[C@H](C(=O)N[C@@H](CC(N)=O)C(=O)N[C@@H](CCC(N)=O)C(=O)N1CCC[C@H]1C(=O)N[C@@H](CCCNC(=N)N)C(=O)N[C@@H](Cc1c[nH]c2ccccc12)C(=O)O)[C@@H](C)O)[C@@H](C)O)[C@@H](C)O)[C@@H](C)O)[C@@H](C)O)[C@@H](C)O)C(C)C)[C@@H](C)O [PF-520] (H-LGLTAGVAYAAQPTNQPTNQPTNQPTNQPTNQPTNQPRW-OH; N-terminus and C-terminus assumed)
- MIC [4]: 50 µM (≈ 211 µg/mL)

Compound: CC[C@H](C)[C@H](NC(=O)[C@H](CCCNC(=N)N)NC(=O)[C@@H](NC(=O)[C@H](CCCCN)NC(=O)[C@H](CCCCN)NC(=O)[C@H](CC(C)C)NC(=O)[C@H](CC(C)C)NC(=O)[C@H](CCCCN)NC(=O)[C@H](CCCNC(=N)N)NC(=O)[C@H](Cc1c[nH]cn1)NC(=O)[C@H](CCCCN)NC(=O)[C@H](CCCCN)NC(=O)[C@H](CCCCN)NC(=O)[C@H](C)NC(=O)[C@H](CCSC)NC(=O)[C@H](CCCNC(=N)N)NC(=O)[C@H](CCCCN)NC(=O)[C@H](CCCNC(=N)N)NC(=O)[C@H](CCCNC(=N)N)NC(=O)[C@H](CCCCN)NC(=O)[C@H](CCCCN)NC(=O)[C@@H](NC(=O)[C@@H](NC(=O)[C@H](CO)NC(=O)CN)C(C)C)[C@@H](C)CC)[C@@H](C)O)C(=O)N[C@@H](CCC(N)=O)C(=O)N[C@@H](CCCNC(=N)N)C(=O)N[C@@H](CCCNC(=N)N)C(=O)N[C@@H](CCCNC(=N)N)C(=O)N[C@@H](C)C(=O)NCC(=O)N[C@@H](CCCCN)C(=O)O [PF-527] (H-GSVIKKRRKRMAKKKHRKLLKKTRIQRRRAGK-OH; N-terminus and C-terminus assumed)
- MIC [5]: 25 µM (≈ 98.5 µg/mL)
- MIC ([6]; A. niger, Potato Dextrose Agar, 25° C., aerobic): 50 µM (≈ 197 µg/mL)

- MIC [1]: 25 µM (≈ 49 µg/mL)
- MIC [6]: 50 µM (≈ 98 µg/mL)
- MIC [2]: 50 µM (≈ 98 µg/mL)
Compound: CC[C@H](C)[C@H](NC(=O)[C@H](CCCNC(=N)N)NC(=O)[C@H](CCCNC(=N)N)NC(=O)[C@H](CCCNC(=N)N)NC(=O)[C@@H](NC(=O)[C@H](CCSC)NC(=O)[C@H](CC(=O)O)NC(=O)[C@H](C)NC(=O)[C@H](CCSC)NC(=O)[C@H](C)NC(=O)[C@@H](NC(=O)[C@H](CC(C)C)NC(=O)[C@H](CCCCN)NC(=O)[C@H](CO)NC(=O)[C@H](CCC(=O)O)NC(=O)[C@@H](N)CCCNC(=N)N)[C@@H](C)CC)[C@@H](C)CC)C(=O)O [PF-545] (H-RESKLIAMADMIRRRI-OH; N-terminus and C-terminus assumed)
